PubChem BioAssay (NCI)
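Cells were grown in 96-well plates and exposed to each compound for 48 hours at five concentrations; endpoints were interpolated linearly between bracketing concentrations, or set to the highest concentration if not reached. GI50 is the concentration that inhibits growth by half. TGI is the concentration that stops growth completely.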

Experiments:
Experiment in all cases: growth of human tumour cells (NCI), 48 h
CCRF-CEM leukemia = test system: CCRF-CEM leukemia
DU-145 prostate = test system: DU-145 prostate
MDA-MB-435 = test system: MDA-MB-435
OVCAR-4 ovarian = test system: OVCAR-4 ovarian
RXF 393 renal = test system: RXF 393 renal
IGROV1 ovarian = test system: IGROV1 ovarian
SW-620 colon = test system: SW-620 colon
OVCAR-8 ovarian = test system: OVCAR-8 ovarian
SR leukemia = test system: SR leukemia
RPMI-8226 leukemia = test system: RPMI-8226 leukemia

| SMILES | TGI (CCRF-CEM leukemia) | TGI (DU-145 prostate) | TGI (MDA-MB-435) | TGI (OVCAR-4 ovarian) | TGI (RXF 393 renal) | TGI (IGROV1 ovarian) | TGI (SW-620 colon) | TGI (OVCAR-8 ovarian) | TGI (SR leukemia) | TGI (RPMI-8226 leukemia) | GI50 (DU-145 prostate) | GI50 (OVCAR-4 ovarian) | GI50 (RXF 393 renal) | GI50 (IGROV1 ovarian) |
| --- | --- | --- | --- | --- | --- | --- | --- | --- | --- | --- | --- | --- | --- | --- |
| CCCCC/C=C1/CC(CO)(COC(=O)CC(C(C)C)C(C)C)OC1=O (centres undefined) | > 100 µM | 27.8 µM | 19 µM | 41.8 µM | 29.8 µM | 31.7 µM | 50.8 µM | 31 µM | 42.8 µM |  |  |  |  |  |
| O=[N+]([O-])C(/C(Cl)=C(/Cl)N1CCOCC1)=C1\NCCO1 | > 100 µM | > 100 µM | > 100 µM | > 100 µM |  |  | > 100 µM | > 100 µM |  | > 100 µM |  |  |  |  |
| CCCC(Sc1nc(N)nc2nc[nH]c12)C(=O)O (centres undefined) | > 100 µM | > 100 µM | > 100 µM | > 100 µM | > 100 µM | > 100 µM | > 100 µM | > 100 µM |  | > 100 µM |  |  |  |  |
| Cc1c(CNc2ccc(Cl)c(C(=O)NC(CC(=O)O)C(=O)O)c2)ccc2nc(N)nc(N)c12 (centres undefined) | > 1000 µM | > 1000 µM | > 1000 µM | > 1000 µM | > 1000 µM | 232 µM | > 1000 µM | > 1000 µM |  |  | 0.594 µM | 265 µM | > 1000 µM | 50.4 µM |
| COc1ccc(-c2oc3ccc(C)cc3c(=O)c2O)cc1 | > 100 µM | > 100 µM | > 100 µM | > 100 µM | > 100 µM | > 100 µM | > 100 µM | 79.3 µM |  | > 100 µM |  |  |  |  |
| Cc1oc2nc1C(=O)NCc1nc(cs1)C(=O)N[C@H](C(C)C)c1nc(cs1)C(=O)N[C@H]2C | > 100 µM | > 100 µM | > 100 µM | > 100 µM | > 100 µM | > 100 µM | > 100 µM | > 100 µM |  | 54.4 µM |  |  |  |  |
| CCNC(=S)N/N=C/c1cc(OC)ccc1O | > 100 µM | > 100 µM | > 100 µM | > 100 µM | > 100 µM | > 100 µM | > 100 µM | > 100 µM | > 100 µM |  |  |  |  |  |
| C=Nc1ccc([N+](=O)[O-])cc1 | > 100 µM |  |  | > 100 µM |  | > 100 µM | > 100 µM | > 100 µM | > 80.1 µM | > 31.6 µM |  |  |  |  |
| CN(C)CCCn1c(Cc2ccccc2)nc2cc(C(F)(F)F)ccc21 | 40.3 µM | > 100 µM | 32.4 µM | > 100 µM | 67.8 µM | > 100 µM | 75.2 µM | > 100 µM |  |  |  |  |  |  |
| COC(c1ccsc1)C(C#N)(C#N)N=Cc1ccsc1 (centres undefined) | 39 µM | 28.5 µM | 29.6 µM | 88 µM | 27 µM | 52 µM | 28.4 µM | 49.9 µM |  |  |  |  |  |  |
| O=[N+]([O-])c1ccc2c(c1)nc(Cc1ccccc1)n2C[C@@H]1CCCN2CCCCC12 (some centres undefined) | 50.2 µM | > 100 µM | 35.5 µM | > 100 µM | 59.6 µM | > 100 µM | > 100 µM | > 100 µM |  |  |  |  |  |  |
| CC(C)OC(=O)c1ccc(NCC2=CC(=O)C=CC2=O)cc1Cl |  | 42.3 µM | 35.1 µM | 32 µM | 47.5 µM | 30.5 µM | > 53.5 µM | > 51.4 µM | 8.22 µM |  |  |  |  |  |
| Cc1cn(C2CC(O)C(CO)C2C)c(=O)[nH]c1=O (centres undefined) | > 100 µM |  |  | > 100 µM | > 100 µM | > 100 µM | > 100 µM | > 100 µM |  |  |  |  |  |  |
| CCNc1nc(N)c(C(=O)c2ccc(Cl)cc2)s1 | 22.6 µM | > 100 µM | > 100 µM | > 100 µM | 53.5 µM | > 100 µM | > 100 µM |  |  | > 100 µM |  |  |  |  |
| CN(C(=O)C12C3C4(C(=O)O)C1(C(=O)N(C)C(C)(C)C)C1C2(C(=O)O)C3(C(=O)N(C)C(C)(C)C)C14C(=O)N(C)C(C)(C)C)C(C)(C)C (centres undefined) | > 100 µM | > 100 µM | > 100 µM | > 100 µM | > 100 µM | > 100 µM | > 100 µM | > 100 µM | > 100 µM |  |  |  |  |  |
| Cc1ccc(S(=O)(=O)NC(=O)NC(Cc2c[nH]c3ccccc23)C(=O)O)cc1 (centres undefined) | > 100 µM | > 100 µM |  | > 100 µM | > 100 µM | > 100 µM | > 100 µM | > 100 µM | > 100 µM | > 100 µM |  |  |  |  |
| CN(C)N=Nc1ccc([N+](=O)[O-])cc1C(N)=O | > 100 µM |  |  | > 100 µM | > 100 µM | > 100 µM | > 100 µM | > 100 µM |  | > 100 µM |  |  |  |  |
| Nc1ccc2c(c1)C1Oc3ccccc3CC1CO2 (centres undefined) | > 100 µM | > 100 µM | > 100 µM |  |  | > 100 µM | > 100 µM | > 100 µM | > 100 µM | > 100 µM |  |  |  |  |
| C=CCOc1ccc(C2c3c([nH][nH]c3=O)CC(O)(OCC)C2C(=O)OCC)cc1OC (centres undefined) | > 100 µM | > 100 µM | > 100 µM | > 100 µM |  | > 100 µM | > 100 µM | > 100 µM |  | > 100 µM |  |  |  |  |

| SMILES | TGI (CCRF-CEM leukemia) | TGI (DU-145 prostate) | TGI (MDA-MB-435) | TGI (OVCAR-4 ovarian) | TGI (RXF 393 renal) | TGI (IGROV1 ovarian) | TGI (SW-620 colon) | TGI (OVCAR-8 ovarian) | TGI (SR leukemia) | TGI (RPMI-8226 leukemia) | GI50 (DU-145 prostate) | GI50 (OVCAR-4 ovarian) | GI50 (RXF 393 renal) | GI50 (IGROV1 ovarian) |
| --- | --- | --- | --- | --- | --- | --- | --- | --- | --- | --- | --- | --- | --- | --- |
| COc1ccc(/C=N\N2CC(=O)N3C4C=CC(CC4)N3C2=O)cc1 (centres undefined) | > 100 µM | > 100 µM | > 100 µM |  |  | > 100 µM | > 100 µM | > 100 µM | > 100 µM | > 100 µM |  |  |  |  |
| CCOC(=O)c1ccc(-c2cc(C)[nH]n2)[nH]1 | > 100 µM | > 100 µM | > 100 µM | > 100 µM | > 100 µM |  | > 100 µM | > 100 µM |  | > 100 µM |  |  |  |  |
| O=C(CCc1cccc(O)c1)NCCc1cccc(O)c1 | > 100 µM | > 100 µM | > 100 µM | > 100 µM | > 100 µM | > 100 µM |  | > 100 µM | > 100 µM |  |  |  |  |  |
| CO/C(=N\N=C\c1ccc(Cl)cc1)c1ccncc1 | > 100 µM |  |  | > 100 µM | > 100 µM | > 100 µM | > 100 µM | > 100 µM | > 100 µM | > 100 µM |  |  |  |  |
| COc1cc2c(cc1OCCCC(=O)Nc1cc(C(=O)Nc3cc(C(=O)Nc4cc(C(=O)NCCCN(C)C)n(C)c4)n(C)c3)n(C)c1)N=C[C@@H]1CCCN1C2=O | > 100 µM | 10.2 µM | 3.48 µM | 3.15 µM | 3.15 µM | 8.74 µM | 5.98 µM | 3.21 µM |  | 14.6 µM |  |  |  |  |
| O=S(=O)(c1cc(Cl)ccc1Cl)N1CCN(S(=O)(=O)c2cc(Cl)ccc2Cl)CC1 |  | 29.6 µM | > 100 µM |  | > 100 µM | > 100 µM | > 100 µM | > 100 µM |  |  |  |  |  |  |
| Cc1cc(O)c(C(C)C)cc1NC(=O)Nc1cccc2ccccc12 |  | 28.3 µM | 31.1 µM | 24.4 µM | 29.4 µM | 37.7 µM | > 100 µM | > 100 µM | > 100 µM |  |  |  |  |  |
| Oc1nc(N/N=C/c2c[nH]c3ccccc23)[nH]c1/C=C1\C=Nc2ccccc21 | 25.3 µM | > 100 µM | 62.4 µM | 86.1 µM | > 100 µM | 41.2 µM | 35.8 µM | 29.2 µM |  | 25.5 µM |  |  |  |  |
| CC(=O)Nc1ccc2c(C(=O)O)c(C)c(=O)[nH]c2n1 |  | > 100 µM | > 100 µM |  | > 100 µM | > 100 µM | > 100 µM | > 100 µM |  | > 100 µM |  |  |  |  |
| CCSc1ncnc2c(C3OC(CO)C(O)C3O)nsc12 (centres undefined) | > 100 µM | > 100 µM | > 100 µM | > 100 µM | > 100 µM | > 100 µM | > 100 µM | > 100 µM | > 100 µM |  |  |  |  |  |
| CCOC(=O)C1=CN=C2C(=O)N(c3ccccc3)N(C)C2(C)C1=N (centres undefined) | > 100 µM | > 100 µM | > 100 µM | > 100 µM | > 100 µM | > 100 µM | > 100 µM | > 100 µM |  | > 100 µM |  |  |  |  |
| CCCSc1cc(Cl)c(C)cc1S(=O)(=O)n1ccnc1OCCCN(C)C | > 100 µM | > 100 µM | > 100 µM | > 100 µM | > 100 µM | > 100 µM | > 100 µM | > 100 µM | > 100 µM |  |  |  |  |  |
| COC(=O)C1=C(C)N2CCCOC2(C)C(C(=O)OC)C1c1cccc(Cl)c1 (centres undefined) | > 100 µM |  |  | > 100 µM | > 100 µM | > 100 µM | > 100 µM | 87.9 µM |  | 52.1 µM |  |  |  |  |
| O=C1C=Cc2c(Cl)sc(Cl)c21 | 1.36 µM | 5.29 µM | 5.31 µM | 37.1 µM | 4.28 µM | 3.09 µM |  |  |  | 4.02 µM |  |  |  |  |
| CC(C)(C)C#C[P+](c1ccccc1)(c1ccccc1)c1ccccc1 | 0.699 µM |  |  | 1.42 µM | 1.37 µM | 2.23 µM | 0.843 µM | 1.67 µM | 0.611 µM | 0.212 µM |  |  |  |  |
| Cc1nc2c(cc1C(=O)NN)c(=O)n(C)c(=O)n2C | > 100 µM | > 100 µM | > 100 µM | > 100 µM | > 100 µM | > 100 µM | > 100 µM | > 100 µM |  | > 100 µM |  |  |  |  |
| CC/C(Cl)=N\OC(=O)Nc1ccc(OC)cc1 | 4.97 µM | 31.3 µM | 25.8 µM | 30.3 µM | 6.52 µM | 17.5 µM |  | 37.4 µM |  | 5.59 µM |  |  |  |  |
| O=C(O)CC(NC(=O)Nc1ccc([N+](=O)[O-])cc1)C(=O)Nc1ccc([N+](=O)[O-])cc1 (centres undefined) | > 100 µM | > 100 µM | > 100 µM | > 100 µM | > 100 µM | > 100 µM | > 100 µM | > 100 µM |  | > 100 µM |  |  |  |  |
